In patent publication US20030232741A1, “Methods of treatment of glaucoma and other conditions mediated by NOS-2 expression via inhibition of the EGFR pathway” (Washington University, priority 2002, published 2003):
Entries after “also recorded” stand apart in the source; their conditions may differ.

Legend:
Assay type in all cases: cell-based
[1] = tested on: NOS-2; assay: NOS-2 protein induction in human ONH astrocytes (immunoblot); details: for NOS-2 protein induced by elevated hydrostatic pressure: elevated hydrostatic pressure 48 hrs, AG18 40 μM, anti-EGFR antibody 1:20; for induction of NOS-2 in response to cytokines (protein/mRNA not specified): IL-1β/IFN-γ
Procedure: (§1) Twelve normal human (aged 22-51) eyes were obtained within 24 hrs after death. Lamina cribrosa astrocytes were obtained as described previously.^5 The second-passage cell cultures, which had over 95% cells positive for GFAP, were grown to 60-80% confluency and placed in serum free medium for one week before use.
(§2) Astrocytes grown on coverslips were placed under sterile, disposable polypropylene cylinders 6 cm high and 3 cm in diameter. Hydrostatic pressure was elevated by 5 cm of serum free medium, conditioned at 37° C. in a 5% CO2 humidified atmosphere. As control, the same number of cells on a coverslip was placed in 140 mm Petri dishes with 0.3 cm height of media in a volume equivalent to that used in the hydrostatic pressure experiments. Both pressurized and control cultures were maintained in a tissue culture incubator at 37° C. with a 5% CO2 humidified atmosphere for various periods. AG82 or AG18 (Calbiochem, Darmstadt, Germany) was added to the cell media 30 min before and during the period of exposure to elevated hydrostatic pressure or IL-1β/IFN-γ at final concentrations of 7 μM or 40 μM, respectively. SB202190 (Calbiochem, Darmstadt, Germany) was added to the cell media 30 min before and during the period of exposure to elevated hydrostatic pressure or IL-1β/IFN-γ at a final concentrations of 380 nM. SN-50 (BioMol, Plymouth Meeting, Pa.) was added to the cell media 30 min before and during the period of exposure to elevated hydrostatic pressure or IL-1β/IFN-γ at a final concentrations of 50 μg/ml. Monoclonal anti-EGFR antibody (Santa Cruz Biotechnology Inc, Santa Cruz, Calif.) which recognizes an EGF receptor cell surface epitope and is an antagonist of EGFR, was added to the cell media 12 hrs before and during the period of exposure to elevated hydrostatic pressure or EGF (100 ng/ml)(Sigma-Aldrich Corp., St. Louis, Mo.) at a working dilution of 1:20. Astrocytes were stimulated by the addition to the media of 200 U/ml human IFN-γ (Sigma-Aldrich Corp, Saint Louis, Mo.) and 10 ng/ml human IL-1β (Sigma-Aldrich Corp, Saint Louis, Mo.) for 12 or 48 hours.
NOS-2 immunoblot was as described previously.^5 For EGFR and p-EGFR immunoblot,^11 astrocytes were lysed in buffer (20 mm HEPES, pH 7.0, 10 mM KCI, 2 mM MgCl2, 0.5% Nonidet P40, 1 mM Na3VO4, 1 mM PMSF, 0.15 U ml^−1 aprotinin) and homogenized. The non-nuclear and nuclear fractions were separated by centrifugation at 1,500 g for 5 min to sediment the nuclei. The nuclear pellet was washed with the lysis buffer and resuspended in the same buffer containing 0.5 M NaCl to extract nuclear proteins. 20 μg protein of each non-nuclear fraction and 40 μg of each nuclear fraction were separated by 10% SDS-PAGE and transferred to a nitrocellulose membrane. Immunoblotting was performed with specific primary antibody against EGFR and p-EGFR followed by peroxidase-conjugated secondary antibody (Santa Cruz Biotechnology Inc, Santa Cruz, Calif.) and imaged by the enhanced chemiluminescence detection system (Amersham Life Science Inc, Arlington Heights, Ill.).

[2] = tested on: NOS-2 mRNA; assay: NOS-2 mRNA induction in human ONH astrocytes (semi-quantitative RT-PCR); details: AG82 7 μM, SB202190 380 nM, SN-50 50 μg/ml; for NOS-2 mRNA induced by elevated hydrostatic pressure: elevated hydrostatic pressure 12 hrs, AG18 40 μM
Procedure: as §1
as §2, with “Astrocytes were stimulated by the addition to the media of 200 U/ml human IFN-γ (Sigma-Aldrich Corp, Saint Louis, Mo.) and 10 ng/ml human IL-1β (Sigma-Aldrich Corp, Saint Louis, Mo.) for 12 or 48 hours.” left out
Semi-quantitative RT-PCR was performed as published previously.^8

[3] = target: T1, p-EGFR (Homo sapiens, UniProt P00533); assay: Immunocytochemistry for p-EGFR in cultured human ONH astrocytes exposed to elevated hydrostatic pressure; details: elevated hydrostatic pressure 10 min; AG82 7 μM added 30 min before and during
T1 sequence (P00533 25-1210): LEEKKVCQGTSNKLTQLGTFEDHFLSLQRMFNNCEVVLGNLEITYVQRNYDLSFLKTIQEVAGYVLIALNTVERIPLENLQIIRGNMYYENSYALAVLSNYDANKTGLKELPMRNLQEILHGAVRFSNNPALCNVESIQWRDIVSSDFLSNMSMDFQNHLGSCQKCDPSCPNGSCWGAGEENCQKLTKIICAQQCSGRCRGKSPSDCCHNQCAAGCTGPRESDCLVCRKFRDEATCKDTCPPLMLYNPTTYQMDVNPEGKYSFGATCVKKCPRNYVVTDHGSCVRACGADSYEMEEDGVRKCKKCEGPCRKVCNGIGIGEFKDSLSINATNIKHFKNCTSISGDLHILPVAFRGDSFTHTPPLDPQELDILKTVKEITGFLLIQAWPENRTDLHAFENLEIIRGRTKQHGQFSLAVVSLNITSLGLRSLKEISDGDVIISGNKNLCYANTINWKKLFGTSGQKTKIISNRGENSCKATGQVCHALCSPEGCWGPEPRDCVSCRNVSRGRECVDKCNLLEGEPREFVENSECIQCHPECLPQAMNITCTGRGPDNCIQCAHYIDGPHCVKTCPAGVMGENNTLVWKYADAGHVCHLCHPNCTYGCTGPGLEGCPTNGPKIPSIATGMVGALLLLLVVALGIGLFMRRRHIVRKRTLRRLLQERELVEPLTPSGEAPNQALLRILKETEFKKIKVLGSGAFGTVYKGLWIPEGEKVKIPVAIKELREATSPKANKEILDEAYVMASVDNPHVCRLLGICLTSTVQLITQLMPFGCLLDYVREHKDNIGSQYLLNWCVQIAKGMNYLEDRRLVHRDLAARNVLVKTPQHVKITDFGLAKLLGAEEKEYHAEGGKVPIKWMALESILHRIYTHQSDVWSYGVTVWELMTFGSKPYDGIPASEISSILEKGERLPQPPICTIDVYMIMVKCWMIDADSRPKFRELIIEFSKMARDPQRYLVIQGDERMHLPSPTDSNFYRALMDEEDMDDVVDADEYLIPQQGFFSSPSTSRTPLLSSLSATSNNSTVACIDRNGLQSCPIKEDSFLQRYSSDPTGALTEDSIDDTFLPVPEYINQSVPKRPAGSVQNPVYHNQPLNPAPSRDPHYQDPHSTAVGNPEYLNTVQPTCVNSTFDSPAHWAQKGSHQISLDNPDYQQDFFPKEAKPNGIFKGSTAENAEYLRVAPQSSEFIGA
Procedure: Astrocytes grown on coverslips were placed under sterile, disposable polypropylene cylinders 6 cm high and 3 cm in diameter. Hydrostatic pressure was elevated by 5 cm of serum free medium, conditioned at 37° C. in a 5% CO2 humidified atmosphere. As control, the same number of cells on a coverslip was placed in 140 mm Petri dishes with 0.3 cm height of media in a volume equivalent to that used in the hydrostatic pressure experiments. Both pressurized and control cultures were maintained in a tissue culture incubator at 37° C. with a 5% CO2 humidified atmosphere for various periods. […]
As described previously,^5 cells grown on coverslips were fixed in 4% paraformaldehyde, incubated with specific primary antibodies against EGFR, p-EGFR or GFAP and appropriate fluorescent conjugated secondary antibodies (Molecular Probes Inc., Eugene, Ore), and visualized by fluorescence microscopy. […]

[4] = target: T1, p-EGFR; assay: Immunoblot for p-EGFR in nuclear and non-nuclear fractions of human ONH astrocytes exposed to elevated hydrostatic pressure; details: elevated hydrostatic pressure 10 min; AG82 7 μM added 30 min before and during
Procedure: NOS-2 immunoblot was as described previously.^5 For EGFR and p-EGFR immunoblot,^11 astrocytes were lysed in buffer (20 mm HEPES, pH 7.0, 10 mM KCI, 2 mM MgCl2, 0.5% Nonidet P40, 1 mM Na3VO4, 1 mM PMSF, 0.15 U ml^−1 aprotinin) and homogenized. The non-nuclear and nuclear fractions were separated by centrifugation at 1,500 g for 5 min to sediment the nuclei. […]

[5] = AG82 7 μM, SB202190 380 nM, SN-50 50 μg/ml

Compound | NOS-2 protein induced by elevated hydrostatic pressure [1, 5] | NOS-2 mRNA induced by elevated hydrostatic pressure [2] | induction of NOS-2 in response to cytokines (protein/mRNA not specified) ([1]; human optic nerve astrocytes) | further results
N#CC(C#N)=Cc1ccc(O)c(O)c1 [AG18, α-Cyano-(3,4-dihydroxy)cinnamonitrile] | prevented both the increased protein level and the mRNA level of NOS-2; also recorded: significantly blocked the appearances of NOS-2 mRNA and protein | prevented both the increased protein level and the mRNA level of NOS-2; also recorded: significantly blocked the appearances of NOS-2 mRNA and protein |  | 
N#CC(C#N)=Cc1cc(O)c(O)c(O)c1 [AG82, α-Cyano-(3,4,5-trihydroxy)cinnamonitrile] | significantly prevented the increased protein level of NOS-2; also recorded: significantly blocked the appearance of NOS-2 protein in response to elevated hydrostatic pressure; also recorded: significantly blocked the appearances of NOS-2 mRNA and protein | almost completely prevented; also recorded: affects the transcription of the NOS-2 gene to mRNA in response to elevated hydrostatic pressure; also recorded: significantly blocked the appearances of NOS-2 mRNA and protein | does not inhibit the induction of NOS-2 in response to cytokines | immunocytochemical labeling for p-EGFR in response to elevated hydrostatic pressure [3]: blocked the increased immunocytochemical labeling for p-EGFR in the cytoplasm in response to elevated hydrostatic pressure and, most notably, there was no nuclear labeling for p-EGFR; also recorded: prevents the nuclear labeling for p-EGFR; tyrosine phosphorylation of EGFR (p-EGFR) in non-nuclear and nuclear extracts by immunoblot [4]: significantly blocked the tyrosine phosphorylation of EGFR in both non-nuclear and nuclear extracts; also recorded: completely prevents the increase in p-EGFR in both nuclear and non-nuclear fractions; induction of NOS-2 in response to elevated hydrostatic pressure (protein/mRNA not specified) ([1]; human optic nerve astrocytes, elevated hydrostatic pressure): blocks induction of NOS-2 in response to elevated hydrostatic pressure
Oc1ccc(-c2nc(-c3ccncc3)c(-c3ccc(F)cc3)[nH]2)cc1 [SD202190] |  |  | blocks the induction of NOS-2 in human optic nerve astrocytes in response to cytokines | NOS-2 protein induced by cytokines ([1]; 200 U/ml IFN-γ and 10 ng/ml IL-1β, 48 hours, AG82 7 μM, SB202190 380 nM, SN-50 50 μg/ml): significantly blocked the appearance of NOS-2 protein in response to cytokine stimulation; NOS-2 mRNA induced by cytokines ([2]; 200 U/ml IFN-γ and 10 ng/ml IL-1β, 12 hours): affects the transcription of the NOS-2 gene to mRNA in response to cytokines
EGF: epidermal growth factor, EGFR ligand (Sigma-Aldrich), added at 100 ng/ml (NSDSECPLSHDGYCLHDGVCMYIEALDKYACNCVVGYIGERCQYRDLKWWELR; UniProt P01133 971-1023, looked up) |  |  |  | NOS-2 protein level in astrocytes treated with EGF (Western blot and immunocytochemistry) ([1]; 100 ng/ml EGF in culture medium for 48 hrs, versus non-treated astrocytes): significantly increased; also recorded: increased labeling for NOS-2 and GFAP
